Data from publication PMC11915372, “Identification of a Series Containing a Pentafluorophenyl Moiety That Targets Pks13 to Inhibit Growth of Mycobacterium tuberculosis” (ACS Infectious Diseases, 2025).
pIC50: −log10 of the molar value. ≈ marks a conversion by molar mass, not a printed value. Like-named read-outs stand apart in the source and are kept apart here.

What was measured:
M. tuberculosis (H37Rv) = assay: microbe, parasite or virus in culture; format: cell-based, Mycobacterium tuberculosis
physchem [1] = format: physicochemical
[2] = format: in vitro ADME, mouse
[3] = format: in vitro ADME, mouse; remark: listed apart in the source
physchem [4] = conditions: pH 7.4
HepG2 cells = assay: HepG2 cytotoxicity; conditions: Homo sapiens
Text: Assays to establish HepG2 cytotoxicity, in vitro microsomal/hepatocyte metabolic stability, aqueous kinetic solubility, and in vivo pharmacokinetic profiles were all performed as previously described.[15],[35]−[37]

[5] = Mycobacterium tuberculosis, H37RV, read-out: H37Rv MIC A
[6] = Mycobacterium tuberculosis, H37RV, read-out: Wk2_7H9/DPPC/ casitone/ Tyloxapol MIC
[7] = Mycobacterium tuberculosis, H37RV, read-out: Wk2_7H9/glucose/ BSA/Tyloxapol MIC
[8] = Mycobacterium tuberculosis, H37RV, read-out: Wk2_7H9/glucose/ casitone/ Tyloxapol MIC
[9] = kinetic solubility in water, read-out: Kin. Sol
[10] = pH 7.4, aqueous buffer, kinetic from dmso stock, pH7.4, read-out: Kinetic Solubility pH7.4
[11] = intrinsic clearance (Cli), CD1 mouse liver microsomes, Tables 1-4
[12] = intrinsic clearance (Cli), mouse hepatocytes, Tables 1-4
[13] = HepG2, read-out: HepG2 inhibitory concentration (IC50)
[14] = Mycobacterium tuberculosis, H37RV, read-out: H37Rv MIC B
[15] = Mycobacterium tuberculosis, H37RV, read-out: Wk2_ 7H9/DPPC/ cholesterol/BSA/ Tyloxapol MIC
[16] = pH 7.4, aqueous buffer, kinetic from dmso stock

| SMILES | MIC (M. tuberculosis (H37Rv); [5]) [µM] | MIC (M. tuberculosis (H37Rv); [6]) [µM] | MIC (M. tuberculosis (H37Rv); [7]) [µM] | MIC (M. tuberculosis (H37Rv); [8]) [µM] | chromatographic logD (physchem [4]) | pIC50 (HepG2 cells; [13]) | MIC (M. tuberculosis (H37Rv); [14]) [µM] | MIC (M. tuberculosis (H37Rv); [15]) [µM] | solubility kinetic (physchem [1]; [16]) [µM] | solubility kinetic (physchem [1]; read-out: Kin. Sol) [µM] | Microsomal Cli ([2]; CD1, mouse) [mL/min/g] | Mouse micro Cl ([2]; mouse, microsomes) | Hepatocyte Cli ([3]; mouse) [mL/min/g] | Mouse Heps Cl ([3]; mouse, hepatocytes) | also measured |
| --- | --- | --- | --- | --- | --- | --- | --- | --- | --- | --- | --- | --- | --- | --- | --- |
| COC(=O)c1nn(C)cc1NC(=O)c1c(F)c(F)c(F)c(F)c1F [Compound 19, COC(=O)c1nn(cc1NC(=O)c1c(c(c(c(c1F)F)F)F)F)C] | 0.15 (≈ 0.0524 µg/mL) | 0.15 (≈ 0.0524 µg/mL) | 0.3 (≈ 0.105 µg/mL) | 0.2 (≈ 0.0698 µg/mL) | 2.7 | < 4.00 |  |  |  |  |  |  |  |  | solubility kinetic (physchem [1]; [9]): 55 µM (≈ 19.2 µg/mL); solubility kinetic (physchem [1]; [10]): 55 µM (≈ 19.2 µg/mL); Mouse micro Cl [2, 11]: 23 mLmin/g; Microsomal Cli ([2]; supplement data table): 23 mL/min/g; Mouse Heps Cl [3, 12]: >50 mLmin/g; Hepatocyte Cli ([3]; supplement data table): >50 mL/min/g |
| COC(=O)c1c(C)noc1NC(=O)c1c(F)c(F)c(F)c(F)c1F [Compound 22, COC(=O)c1c(noc1NC(=O)c1c(c(c(c(c1F)F)F)F)F)C] | 0.97 (≈ 0.34 µg/mL) | 1 (≈ 0.35 µg/mL) | 2.3 (≈ 0.805 µg/mL) | 0.8 (≈ 0.28 µg/mL) | 1.5 | < 4.00 | 3.1 (≈ 1.09 µg/mL) | 3.1 (≈ 1.09 µg/mL) | 242 (≈ 84.7 µg/mL) | 242 (≈ 84.7 µg/mL) | 3.8 | 3.8 mLmin/g | 46 | 45.6 mLmin/g |  |
| COC(=O)c1nc(C)oc1NC(=O)c1c(F)c(F)c(F)c(F)c1F [Compound 23, COC(=O)c1nc(oc1NC(=O)c1c(c(c(c(c1F)F)F)F)F)C] | 0.6 (≈ 0.21 µg/mL) | 0.6 (≈ 0.21 µg/mL) | 1.2 (≈ 0.42 µg/mL) | 0.6 (≈ 0.21 µg/mL) | 1.4 | < 4.00 | 1.2 (≈ 0.42 µg/mL) | 1.2 (≈ 0.42 µg/mL) | 237 (≈ 83 µg/mL) | 237 (≈ 83 µg/mL) | <0.5 | <0.5 mLmin/g | 8.1 | 8.1 mLmin/g |  |
| CCOC(=O)c1nc(C)oc1NC(=O)c1c(F)c(F)c(F)c(F)c1F [Compound 24, CCOC(=O)c1nc(oc1NC(=O)c1c(c(c(c(c1F)F)F)F)F)C] | 0.27 (≈ 0.0983 µg/mL) | 0.271 (≈ 0.0987 µg/mL) | 0.434 (≈ 0.158 µg/mL) | 0.168 (≈ 0.0612 µg/mL) | 1.8 | < 4.00 | 0.6 (≈ 0.219 µg/mL) | 0.6 (≈ 0.219 µg/mL) | 204 (≈ 74.3 µg/mL) | 204 (≈ 74.3 µg/mL) | <0.5 |  | 12 |  | MIC (M. tuberculosis (H37Rv); read-out: H37Rv MIC A): 0.3 µM (≈ 0.109 µg/mL) |
| CCOC(=O)c1nc(C)oc1NC(=O)c1cc(F)c(F)c(F)c1F [Compound 25, CCOC(=O)c1nc(oc1NC(=O)c1cc(c(c(c1F)F)F)F)C] | 0.3 (≈ 0.104 µg/mL) | 0.3 (≈ 0.104 µg/mL) | 0.6 (≈ 0.208 µg/mL) | 0.3 (≈ 0.104 µg/mL) | 2.5 | < 4.00 | 0.6 (≈ 0.208 µg/mL) | 0.6 (≈ 0.208 µg/mL) | 136 (≈ 47.1 µg/mL) | 136 (≈ 47.1 µg/mL) | 5.1 | 5.1 mLmin/g | 17 | 17 mLmin/g |  |
| CCOC(=O)c1nc(C)oc1NC(=O)c1c(F)cc(F)c(F)c1F [Compound 27, CCOC(=O)c1nc(oc1NC(=O)c1c(cc(c(c1F)F)F)F)C] | 3.1 (≈ 1.07 µg/mL) | 3.1 (≈ 1.07 µg/mL) | 4.7 (≈ 1.63 µg/mL) | 2.3 (≈ 0.796 µg/mL) | 1.9 | < 4.00 | 4.7 (≈ 1.63 µg/mL) | 4.7 (≈ 1.63 µg/mL) | 232 (≈ 80.3 µg/mL) | 232 (≈ 80.3 µg/mL) | 0.8 | 0.80 mLmin/g | 3.4 | 3.4 mLmin/g |  |
| CCOC(=O)c1nc(C)oc1NC(=O)c1c(F)c(F)cc(F)c1F [Compound 28, CCOC(=O)c1nc(oc1NC(=O)c1c(c(cc(c1F)F)F)F)C] | > 50 | > 50 | > 50 | > 50 | 1.7 |  | > 50 | > 50 |  |  |  |  |  |  | solubility kinetic (physchem [1]; [9]): 163 µM (≈ 56.4 µg/mL); solubility kinetic (physchem [1]; [10]): 163 µM (≈ 56.4 µg/mL); Mouse micro Cl [2, 11]: <0.5 mLmin/g; Microsomal Cli ([2]; supplement data table): <0.5 mL/min/g; Mouse Heps Cl [3, 12]: 0.88 mLmin/g; Hepatocyte Cli ([3]; supplement data table): 0.9 mL/min/g; pIC50 (HepG2 cells; HepG2, read-out: Hs-HEPG IC50): < 4.00 |
| CCOC(=O)c1nc(C)oc1NCc1c(F)c(F)c(F)c(F)c1F [Compound 29, CCOC(=O)c1nc(oc1NCc1c(c(c(c(c1F)F)F)F)F)C] | > 50 | > 50 | > 50 | > 50 | 3.2 | < 4.00 | > 50 | > 50 | 23 (≈ 8.06 µg/mL) | 23 (≈ 8.06 µg/mL) | 32 | 32 mLmin/g | >50 | >50 mLmin/g |  |
| CCOC(=O)c1nc(C)oc1NS(=O)(=O)c1c(F)c(F)c(F)c(F)c1F [Compound 30, CCOC(=O)c1nc(oc1NS(=O)(=O)c1c(c(c(c(c1F)F)F)F)F)C] | > 50 | > 50 | > 50 | > 50 | 1.4 | < 4.00 | > 50 | > 50 | 171 (≈ 68.4 µg/mL) | 171 (≈ 68.4 µg/mL) | 0.9 | 0.94 mLmin/g | 0.8 | 0.78 mLmin/g |  |
| CCOC(=O)c1nc(C(C)C)oc1NC(=O)c1c(F)c(F)c(F)c(F)c1F [Compound 31, CCOC(=O)c1nc(oc1NC(=O)c1c(c(c(c(c1F)F)F)F)F)C(C)C] | 0.1 (≈ 0.0392 µg/mL) | 0.1 (≈ 0.0392 µg/mL) | 0.6 (≈ 0.235 µg/mL) | 0.15 (≈ 0.0588 µg/mL) | 2.8 | < 4.00 | 0.6 (≈ 0.235 µg/mL) | 0.6 (≈ 0.235 µg/mL) | 195 (≈ 76.5 µg/mL) | 195 (≈ 76.5 µg/mL) | 3.3 | 3.3 mL/min/g | 13 | 13 mL/min/g |  |
| CCOC(=O)c1nc(N(C)C)oc1NC(=O)c1c(F)c(F)c(F)c(F)c1F [Compound 32, CCOC(=O)c1nc(oc1NC(=O)c1c(c(c(c(c1F)F)F)F)F)N(C)C] | 0.2 (≈ 0.0787 µg/mL) | 0.2 (≈ 0.0787 µg/mL) | 1.2 (≈ 0.472 µg/mL) | 0.3 (≈ 0.118 µg/mL) | 2.4 | < 4.00 | 0.6 (≈ 0.236 µg/mL) | 0.6 (≈ 0.236 µg/mL) | 221 (≈ 86.9 µg/mL) | 221 (≈ 86.9 µg/mL) | 1.4 | 1.4 mL/min/g | 22 | 22 mL/min/g |  |
| CCOC(=O)c1nc(COC)oc1NC(=O)c1c(F)c(F)c(F)c(F)c1F [Compound 33, CCOC(=O)c1nc(oc1NC(=O)c1c(c(c(c(c1F)F)F)F)F)COC] | 1.2 (≈ 0.473 µg/mL) | 1.2 (≈ 0.473 µg/mL) | 2.3 (≈ 0.907 µg/mL) | 1.2 (≈ 0.473 µg/mL) | 1.6 | < 4.00 | 2.3 (≈ 0.907 µg/mL) | 2.3 (≈ 0.907 µg/mL) | 227 (≈ 89.5 µg/mL) | 227 (≈ 89.5 µg/mL) | <0.5 | <0.5 mL/min/g | 7.5 | 7.5 mL/min/g |  |
| CCOC(=O)c1nc(-c2ccccc2)oc1NC(=O)c1c(F)c(F)c(F)c(F)c1F [Compound 34, CCOC(=O)c1nc(oc1NC(=O)c1c(c(c(c(c1F)F)F)F)F)-c1ccccc1] | 0.8 (≈ 0.341 µg/mL) | 0.8 (≈ 0.341 µg/mL) | 4.7 (≈ 2 µg/mL) | 0.3 (≈ 0.128 µg/mL) | 3 | 4.03 | 4.7 (≈ 2 µg/mL) | 4.7 (≈ 2 µg/mL) | 21 (≈ 8.95 µg/mL) | 21 (≈ 8.95 µg/mL) | 6.9 | 6.9 mL/min/g | 10 | 10 mL/min/g |  |
| CCOC(=O)c1nc(CN(C)C)oc1NC(=O)c1c(F)c(F)c(F)c(F)c1F [Compound 35, CCOC(=O)c1nc(oc1NC(=O)c1c(c(c(c(c1F)F)F)F)F)CN(C)C] | 2.3 (≈ 0.937 µg/mL) | 2.3 (≈ 0.937 µg/mL) | 4.7 (≈ 1.91 µg/mL) | 1.6 (≈ 0.652 µg/mL) | 1.3 | < 4.00 | 4.7 (≈ 1.91 µg/mL) | 4.7 (≈ 1.91 µg/mL) | 225 (≈ 91.6 µg/mL) | 225 (≈ 91.6 µg/mL) | <0.5 | <0.5 mL/min/g | 4.7 | 4.7 mL/min/g |  |
| Cc1nc(C(=O)OC(C)(C)C)c(NC(=O)c2c(F)c(F)c(F)c(F)c2F)o1 [Compound 36, Cc1nc(c(o1)NC(=O)c1c(c(c(c(c1F)F)F)F)F)C(=O)OC(C)(C)C] | 0.1 (≈ 0.0392 µg/mL) | 0.1 (≈ 0.0392 µg/mL) | 0.3 (≈ 0.118 µg/mL) | 0.1 (≈ 0.0392 µg/mL) | 2.8 | < 4.00 | 0.4 (≈ 0.157 µg/mL) | 0.4 (≈ 0.157 µg/mL) | 127 (≈ 49.8 µg/mL) | 127 (≈ 49.8 µg/mL) | 1.1 | 1.1 mL/min/g | 26 | 26 mL/min/g |  |
| Cc1ncc(NC(=O)c2c(F)c(F)c(F)c(F)c2F)o1 [Compound 37, Cc1ncc(o1)NC(=O)c1c(c(c(c(c1F)F)F)F)F] | > 50 | > 50 | > 50 | > 50 | 1.9 | < 4.00 | > 50 | > 50 | 105 (≈ 30.7 µg/mL) | 105 (≈ 30.7 µg/mL) | <0.5 | <0.5 mL/min/g | 5.8 | 5.8 mL/min/g |  |
